The text below walks through data of US20230398130A1, “METHODS AND COMPOSITIONS FOR DIFFERENTIATING STEM CELLS” (Massachusetts Institute of Technology, priority 2020, published 2023).

Experiment [1] deals with ISC-enriched organoids. The experiment can be described thus: Primary screen, 384-well 2.5-D organoid differentiation (ENR+CD, 6 days): carbachol-induced lysozyme secretion (LYZ.S). The note with it: primary screen; for Dose.FC.LYZ.S: FC vs plate median; for Z.LYZ.S: standard z score; for SSMD.LYZ.S: strictly standardized mean difference. The experiment is classed as cell-based, murine. The source says: (§1) High-throughput screening.

Experiment [2] relates to ISC-enriched organoids. The experiment can be described thus: Primary screen, 384-well 2.5-D organoid differentiation (ENR+CD, 6 days, Target Selective Inhibitor Library, vs whole-plate median): ATP (CellTiter-Glo 3D, CTG). The note with it: primary screen; for Dose.FC.CTG: FC vs plate median; for SSMD.CTG: strictly standardized mean difference. On the technique in general: ATP-based viability assays read luminescence as a measure of living cells.

Experiment [3] concerns ISC-enriched organoids. Kind of experiment: Primary screen, 384-well 2.5-D organoid differentiation (ENR+CD, 6 days): basal lysozyme secretion (LYZ.NS). Format: cell-based, murine. The note with it: primary screen; for Dose.FC.LYZ.NS: FC vs plate median.
Text: as §1

The mark [4] stands for this setting: Dose 10.00 uM, standard z score.
Setting [5] is: dose 0.08 uM, standard z score of FC.
The mark [6] stands for this setting: dose 0.40 uM, standard z score of FC.
Where [7] appears, read: dose 2.00 uM, standard z score of FC.
[8] abbreviates: dose 10.00 uM, standard z score of FC.
Where [9] appears, read: 1st of the 4 dose lines of the treatment (dose not given).
Setting [10] is: 2nd of the 4 dose lines of the treatment (dose not given).
Setting [11] is: 3rd of the 4 dose lines of the treatment (dose not given).
[12] abbreviates: 4th of the 4 dose lines of the treatment (dose not given).

For `Fc1cc(F)c2c(c1)[C@H]1C=CC[C@H]1C(c1cccnc1)N2` (mixture of isomers) [Golgicide A], the Dose.FC.LYZ.S is reported as 0.146 log 2 fold change in the experiment with ISC-enriched organoids [1] (Dose 0.08 uM), 0.202 log 2 fold change in the experiment on ISC-enriched organoids [1] (Dose 0.40 uM), 0.076 log 2 fold change in the experiment on ISC-enriched organoids [1] (Dose 2.00 uM) and −0.256 log 2 fold change in the experiment on ISC-enriched organoids [1] (Dose 10.00 uM). In addition, the Dose.FC.CTG with ISC-enriched organoids [2] (Dose 0.08 uM) was 0.167 log 2 fold change; with ISC-enriched organoids [2] (Dose 0.40 uM), 0.227 log 2 fold change; in the experiment with ISC-enriched organoids [2] (Dose 2.00 uM), 0.339 log 2 fold change; with ISC-enriched organoids [2] (Dose 10.00 uM), −0.220 log 2 fold change. For the same compound, the Z.CTG in the experiment with ISC-enriched organoids [2] (Dose 0.08 uM, standard z score) is on record as 0.398; with ISC-enriched organoids [2] (Dose 0.40 uM, standard z score), 0.541; in the experiment on ISC-enriched organoids [2] (Dose 2.00 uM, standard z score) it was 0.810; with ISC-enriched organoids [2] (setting [4]) it was −0.526. In addition, the Dose.FC.LYZ.NS is 0.267 log 2 fold change in the experiment on ISC-enriched organoids [3] (Dose 0.08 uM), 0.066 log 2 fold change in the experiment with ISC-enriched organoids [3] (Dose 0.40 uM), 0.171 log 2 fold change in the experiment with ISC-enriched organoids [3] (Dose 2.00 uM) and −0.161 log 2 fold change in the experiment on ISC-enriched organoids [3] (Dose 10.00 uM). Moreover, the Z.LYZ.NS is on record as 2.325 in the experiment on ISC-enriched organoids [3] (Dose 0.08 uM, standard z score); 0.576 with ISC-enriched organoids [3] (Dose 0.40 uM, standard z score); 1.492 with ISC-enriched organoids [3] (Dose 2.00 uM, standard z score); −1.402 with ISC-enriched organoids [3] (setting [4]).
For `C[C@H]1COC2(CCN(c3nc(=O)c4cc(C(F)(F)F)cc([N+](=O)[O-])c4s3)CC2)O1` (racemic) [BTZ043 Racemate], the Dose.FC.LYZ.S in the experiment on ISC-enriched organoids [1] (dose 0.08 uM, ENR+CD 6 days) is on record as 0.199 log 2 fold change; with ISC-enriched organoids [1] (dose 0.40 uM, ENR+CD 6 days) it was 0.252 log 2 fold change; in the experiment with ISC-enriched organoids [1] (dose 2.00 uM, ENR+CD 6 days), 0.038 log 2 fold change; in the experiment with ISC-enriched organoids [1] (dose 10.00 uM, ENR+CD 6 days), 0.070 log 2 fold change. Further, the Dose.FC.CTG with ISC-enriched organoids [2] (dose 0.08 uM, ENR+CD 6 days) came to 0.497 log 2 fold change; in the experiment with ISC-enriched organoids [2] (dose 0.40 uM, ENR+CD 6 days), 0.545 log 2 fold change; in the experiment with ISC-enriched organoids [2] (dose 2.00 uM, ENR+CD 6 days) it was 0.063 log 2 fold change; in the experiment on ISC-enriched organoids [2] (dose 10.00 uM, ENR+CD 6 days), 0.327 log 2 fold change. The Z.CTG is 1.187 in the experiment on ISC-enriched organoids [2] (setting [5]), 1.303 in the experiment with ISC-enriched organoids [2] (setting [6]), 0.150 in the experiment with ISC-enriched organoids [2] (setting [7]) and 0.782 in the experiment with ISC-enriched organoids [2] (setting [8]). For the same compound, the Dose.FC.LYZ.NS with ISC-enriched organoids [3] (dose 0.08 uM, ENR+CD 6 days) is recorded as 0.131 log 2 fold change; in the experiment on ISC-enriched organoids [3] (dose 0.40 uM, ENR+CD 6 days), 0.186 log 2 fold change; with ISC-enriched organoids [3] (dose 2.00 uM, ENR+CD 6 days) it was 0.089 log 2 fold change; in the experiment with ISC-enriched organoids [3] (dose 10.00 uM, ENR+CD 6 days), 0.100 log 2 fold change. The Z.LYZ.NS in the experiment on ISC-enriched organoids [3] (setting [5]) is 1.138; in the experiment on ISC-enriched organoids [3] (setting [6]), 1.619; in the experiment on ISC-enriched organoids [3] (setting [7]), 0.776; in the experiment on ISC-enriched organoids [3] (setting [8]), 0.870.
With `O=c1cc(-c2cccc3c2Sc2ccccc2S3)oc(N2CCOCC2)c1` [KU-55933 (ATM Kinase Inhibitor)], the Dose.FC.LYZ.S in the experiment with ISC-enriched organoids [1] (Dose 0.08 uM) is listed as 0.168 log 2 fold change; with ISC-enriched organoids [1] (Dose 0.40 uM), 0.200 log 2 fold change; in the experiment on ISC-enriched organoids [1] (Dose 2.00 uM), 0.161 log 2 fold change; with ISC-enriched organoids [1] (Dose 10.00 uM), 0.076 log 2 fold change. The Z.LYZ.S in the experiment with ISC-enriched organoids [1] (setting [9]) stood at 1.088; in the experiment with ISC-enriched organoids [1] (setting [10]) it was 1.291; in the experiment on ISC-enriched organoids [1] (setting [11]), 1.043; in the experiment with ISC-enriched organoids [1] (setting [12]) it was 0.494. The SSMD.LYZ.S in the experiment with ISC-enriched organoids [1] (setting [9]) turned out to be 1.113; in the experiment with ISC-enriched organoids [1] (setting [10]) it was 0.994; with ISC-enriched organoids [1] (setting [11]) it was 1.246; in the experiment on ISC-enriched organoids [1] (setting [12]), 0.400. Besides, the Dose.FC.CTG was determined as 0.524 log 2 fold change in the experiment with ISC-enriched organoids [2] (Dose 0.08 uM), 0.477 log 2 fold change in the experiment with ISC-enriched organoids [2] (Dose 0.40 uM), 0.551 log 2 fold change with ISC-enriched organoids [2] (Dose 2.00 uM) and 0.541 log 2 fold change in the experiment on ISC-enriched organoids [2] (Dose 10.00 uM). Moreover, the Z.CTG in the experiment on ISC-enriched organoids [2] (Dose 0.08 uM, standard z score) is recorded as 1.251; in the experiment on ISC-enriched organoids [2] (Dose 0.40 uM, standard z score), 1.140; in the experiment with ISC-enriched organoids [2] (Dose 2.00 uM, standard z score) it was 1.317; with ISC-enriched organoids [2] (setting [4]), 1.293. The SSMD.CTG with ISC-enriched organoids [2] (setting [9]) was found to be 1.626; in the experiment on ISC-enriched organoids [2] (setting [10]), 1.743; in the experiment on ISC-enriched organoids [2] (setting [11]) it was 1.554; in the experiment on ISC-enriched organoids [2] (setting [12]), 1.744.
